Measured values from PubChem BioAssay AID1963829 (Molecular Pharmacology Branch, DTP, NCI, 2024).
pIC50: −log10 of the molar value.

Tested on: 935938-334-R-J1-PDC complex spheroid viability
Assay: Anticancer human tumor 935938-334-R-J1-PDC patient-derived small intestine adenocarcinoma cell line growth inhibition [POLQ]
Conditions: for pIC50: curve of first compound; for viability, T/C: stronger effect = lower value; active means viability on the fitted dose curve at most 10% of control; inactive means the rest
Summary of the method: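 Patient-derived tumour cells were co-cultured with HUVEC and mesenchymal stem cells as multicellular spheroids at 37 °C. They were treated with POLQ inhibitors (novobiocin, ART-558, RP6685) alone or combined with other agents. Top concentrations were at or near clinical Cmax (otherwise 10 microM; SN-38 at 1 microM), decreasing in half-log steps.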

[1] = second compound 0.0316 µM, first compound 0.0316 µM
[2] = second compound 0.0316 µM, first compound 0.1 µM
[3] = second compound 0.0316 µM, first compound 0.316 µM
[4] = second compound 0.0316 µM, first compound 1 µM
[5] = second compound 0.0316 µM, first compound 3.16 µM
[6] = second compound 0.0316 µM, first compound 10 µM
[7] = second compound 0.1 µM, first compound 0.0316 µM
[8] = second compound 0.1 µM, first compound 0.1 µM
[9] = second compound 0.1 µM, first compound 0.316 µM
[10] = second compound 0.1 µM, first compound 1 µM
[11] = second compound 0.1 µM, first compound 3.16 µM
[12] = second compound 0.1 µM, first compound 10 µM
[13] = second compound 0.316 µM, first compound 0.0316 µM
[14] = second compound 0.316 µM, first compound 0.1 µM
[15] = second compound 0.316 µM, first compound 0.316 µM
[16] = second compound 0.316 µM, first compound 1 µM
[17] = second compound 0.316 µM, first compound 3.16 µM
[18] = second compound 0.316 µM, first compound 10 µM
[19] = second compound 1 µM, first compound 0.0316 µM
[20] = second compound 1 µM, first compound 0.1 µM
[21] = second compound 1 µM, first compound 0.316 µM
[22] = second compound 1 µM, first compound 1 µM
[23] = second compound 1 µM, first compound 3.16 µM
[24] = second compound 1 µM, first compound 10 µM
[25] = second compound 3.16 µM, first compound 0.0316 µM
[26] = second compound 3.16 µM, first compound 0.1 µM
[27] = second compound 3.16 µM, first compound 0.316 µM
[28] = second compound 3.16 µM, first compound 1 µM
[29] = second compound 3.16 µM, first compound 3.16 µM
[30] = second compound 3.16 µM, first compound 10 µM
[31] = second compound 10 µM, first compound 0.0316 µM
[32] = second compound 10 µM, first compound 0.1 µM
[33] = second compound 10 µM, first compound 0.316 µM
[34] = second compound 10 µM, first compound 1 µM
[35] = second compound 10 µM, first compound 3.16 µM
[36] = second compound 10 µM, first compound 10 µM
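Further: spheroids exposed to drugs for seven days before viability read.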
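Wherever viability, T/C is given: 100% = DMSO vehicle control wells.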

COc1cc2cc(C(=O)CCC(=O)O)sc2cc1OC + COC1C(OC(N)=O)C(O)C(Oc2ccc3c(O)c(NC(=O)c4ccc(O)c(CC=C(C)C)c4)c(=O)oc3c2C)OC1(C)C
inactive: viability, T/C [1] 101% | viability, T/C [2] 98.3% | viability, T/C [3] 113% | viability, T/C [4] 83.7% | viability, T/C [5] 108% | viability, T/C [6] 110% | viability, T/C [7] 103% | viability, T/C [8] 118% | viability, T/C [9] 97.9% | viability, T/C [10] 110% | viability, T/C [11] 92.4% | viability, T/C [12] 135% | viability, T/C [13] 128% | viability, T/C [14] 131% | viability, T/C [15] 109% | viability, T/C [16] 98% | viability, T/C [17] 112% | viability, T/C [18] 105% | viability, T/C [19] 99.2% | viability, T/C [20] 98.3% | viability, T/C [21] 90.8% | viability, T/C [22] 112% | viability, T/C [23] 108% | viability, T/C [24] 83.1% | viability, T/C [25] 106% | viability, T/C [26] 96.1% | viability, T/C [27] 96.9% | viability, T/C [28] 101% | viability, T/C [29] 109% | viability, T/C [30] 95.4% | viability, T/C [31] 171% | viability, T/C [32] 118% | viability, T/C [33] 98% | viability, T/C [34] 101% | viability, T/C [35] 80.8% | viability, T/C [36] 109%
< 5.00: pIC50 (second compound 0.0316 µM) | pIC50 (second compound 0.1 µM) | pIC50 (second compound 0.316 µM) | pIC50 (second compound 1 µM) | pIC50 (second compound 3.16 µM) | pIC50 (second compound 10 µM)

COc1cc(C2c3cc4c(cc3C(OC3OC5COC(C)OC5C(O)C3O)C3COC(=O)C23)OCO4)cc(OC)c1O (stereo not drawn) + Nc1ccc(C#CCN(C(=O)Cc2ncc(C(F)(F)F)cc2C(F)(F)F)c2ccc(F)cc2)nn1
6.21: pIC50 (second compound 1 µM)
6.08: pIC50 (second compound 0.0316 µM)
6.22: pIC50 (second compound 3.16 µM)
6.12: pIC50 (second compound 0.316 µM)
6.25: pIC50 (second compound 10 µM)
6.18: pIC50 (second compound 0.1 µM)
inactive: viability, T/C [1] 95.1% | viability, T/C [2] 86.1% | viability, T/C [3] 87.8% | viability, T/C [4] 42.9% | viability, T/C [5] 26.8% | viability, T/C [6] 31.6% | viability, T/C [7] 99.5% | viability, T/C [8] 90.8% | viability, T/C [9] 74.5% | viability, T/C [10] 35.5% | viability, T/C [11] 37.5% | viability, T/C [12] 29.9% | viability, T/C [13] 108% | viability, T/C [14] 68.9% | viability, T/C [15] 69.1% | viability, T/C [16] 49.6% | viability, T/C [17] 31.2% | viability, T/C [18] 30.4% | viability, T/C [19] 83.3% | viability, T/C [20] 89.2% | viability, T/C [21] 60.3% | viability, T/C [22] 43.9% | viability, T/C [23] 28% | viability, T/C [24] 31.7% | viability, T/C [25] 109% | viability, T/C [26] 86.7% | viability, T/C [27] 64.6% | viability, T/C [28] 37.6% | viability, T/C [29] 32.7% | viability, T/C [30] 31.3% | viability, T/C [31] 110% | viability, T/C [32] 79.2% | viability, T/C [33] 64.8% | viability, T/C [34] 38.4% | viability, T/C [35] 29% | viability, T/C [36] 33.7%

CCc1cc2c(N3CCc4c(cc(Cn5ccnc5)cc4-c4cn(C)nc4C(F)(F)F)C3=O)cc(C)nc2c(OC)n1 + Nc1ccc(C#CCN(C(=O)Cc2ncc(C(F)(F)F)cc2C(F)(F)F)c2ccc(F)cc2)nn1
inactive: viability, T/C [1] 93.5% | viability, T/C [2] 62% | viability, T/C [3] 63.9% | viability, T/C [4] 73.7% | viability, T/C [5] 74.5% | viability, T/C [6] 66.7% | viability, T/C [7] 67.9% | viability, T/C [8] 66.2% | viability, T/C [9] 57.1% | viability, T/C [10] 52.9% | viability, T/C [11] 70.6% | viability, T/C [12] 57.8% | viability, T/C [13] 74.1% | viability, T/C [14] 65% | viability, T/C [15] 77.6% | viability, T/C [16] 60.9% | viability, T/C [17] 62.3% | viability, T/C [18] 63.5% | viability, T/C [19] 89.8% | viability, T/C [20] 60.6% | viability, T/C [21] 65% | viability, T/C [22] 65.5% | viability, T/C [23] 56.5% | viability, T/C [24] 49.1% | viability, T/C [25] 85.2% | viability, T/C [26] 63.3% | viability, T/C [27] 62% | viability, T/C [28] 58.1% | viability, T/C [29] 72.2% | viability, T/C [30] 56.6% | viability, T/C [31] 70.5% | viability, T/C [32] 75.1% | viability, T/C [33] 82.3% | viability, T/C [34] 72.8% | viability, T/C [35] 66.4% | viability, T/C [36] 61.1%
< 5.00: pIC50 (second compound 0.0316 µM) | pIC50 (second compound 0.1 µM) | pIC50 (second compound 0.316 µM) | pIC50 (second compound 1 µM) | pIC50 (second compound 3.16 µM) | pIC50 (second compound 10 µM)

CC1COCCN1c1cc(-c2ccnn2C)c2ccnc(-c3ccn[nH]3)c2n1 (stereo not drawn) + Cc1cccc(N(C)C(=O)C2C(O)CCN2c2nc(C)cc(C(F)(F)F)c2C#N)c1
6.94: pIC50 (second compound 3.16 µM)
7.01: pIC50 (second compound 0.1 µM)
6.97: pIC50 (second compound 0.0316 µM) | pIC50 (second compound 0.316 µM)
inactive: viability, T/C [1] 93.5% | viability, T/C [2] 52.1% | viability, T/C [3] 20.2% | viability, T/C [4] 17.5% | viability, T/C [5] 20.1% | viability, T/C [6] 22% | viability, T/C [7] 105% | viability, T/C [8] 48.6% | viability, T/C [9] 29.4% | viability, T/C [10] 20.7% | viability, T/C [11] 18.7% | viability, T/C [12] 23.3% | viability, T/C [13] 79.2% | viability, T/C [14] 51.7% | viability, T/C [15] 23.6% | viability, T/C [16] 17.7% | viability, T/C [17] 18.9% | viability, T/C [18] 20.8% | viability, T/C [19] 90.2% | viability, T/C [20] 54.9% | viability, T/C [21] 29.8% | viability, T/C [22] 16.4% | viability, T/C [23] 21.9% | viability, T/C [24] 22% | viability, T/C [25] 83.3% | viability, T/C [26] 53.4% | viability, T/C [27] 23.5% | viability, T/C [28] 17.2% | viability, T/C [29] 18.5% | viability, T/C [30] 23% | viability, T/C [31] 86% | viability, T/C [32] 51.9% | viability, T/C [33] 32.1% | viability, T/C [34] 18.4% | viability, T/C [35] 22.6% | viability, T/C [36] 22.8%
6.95: pIC50 (second compound 10 µM)
6.90: pIC50 (second compound 1 µM)
